Reference: article PMC7178854 (Journal of Enzyme Inhibition and Medicinal Chemistry, 2020)

Assays:
ASFV protease (pS273R) [1] = biological target: T1, ASFV protease (pS273R) (African swine fever virus BA71V, UniProt Q00946); format: biochemical
T1 construct: gene Ba71V-111

ASFV protease (pS273R) [2] = biological target: T1, ASFV protease (pS273R); test: biochemical

T1 sequence (Q00946 whole entry, looked up): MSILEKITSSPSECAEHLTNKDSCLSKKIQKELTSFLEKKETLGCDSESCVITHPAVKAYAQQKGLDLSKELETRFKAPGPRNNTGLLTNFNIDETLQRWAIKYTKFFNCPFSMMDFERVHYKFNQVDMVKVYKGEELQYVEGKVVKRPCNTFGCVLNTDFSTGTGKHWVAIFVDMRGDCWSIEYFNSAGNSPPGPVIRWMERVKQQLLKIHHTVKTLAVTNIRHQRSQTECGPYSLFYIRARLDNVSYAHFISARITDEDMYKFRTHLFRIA

Structure (SMILES)	RFU at 40 μM (ASFV protease (pS273R) [1])	IC50 (ASFV protease (pS273R) [2])
O=c1c(O)c(-c2ccc(O)cc2)oc2c(O)c(O)cc(O)c12 [herbacetin]	Its activity, however, is similar to those of herbacetin, kaempferol and morin	–
O=c1c(O)c(-c2ccc(O)cc2O)oc2cc(O)cc(O)c12 [morin]	Its activity, however, is similar to those of herbacetin, kaempferol and morin	–
C[C@@H]1O[C@@H](Oc2c(-c3cc(O)c(O)c(O)c3)oc3cc(O)cc(O)c3c2=O)[C@H](O)[C@H](O)[C@H]1O [myricitrin]	–	2.7 µM
O=c1c(O)c(-c2ccc(O)cc2)oc2cc(O)cc(O)c12 [kaempferol]	Its activity, however, is similar to those of herbacetin, kaempferol and morin	–
O=c1c(O)c(-c2cc(O)c(O)c(O)c2)oc2cc(O)cc(O)c12 [myricetin, 3,3′,4′,5,5′,7-Hexahydroxyflavone]	–	8.4 µM
